Where “and” joins values, the source holds several entries; their conditions need not be identical. Equal values may be shown once.
What was measured:
[1] = tested on: patients diagnosed with FXS; test: 10-week open-label trial of acamprosate in youth with FXS: behavioral outcome measures; type: in vivo, human; set-up: key to mean CGI-I at endpoint: CGI-I score: 1 = very much improved, 2 = much improved; settings: for Aberrant Behavior Checklist-Social Avoidance (ABC-SA), End point (mean ± SD): baseline 3.3 ± 2.6; for Clinical Global Impressions-Severity (CGI-S), End point (mean ± SD): baseline 4.25 ± 0.45; for Clinical Global Impressions-Severity (CGI-S), End point (mean ± SD) / ADHD Rating Scale 4th Edition (ADHD-RS), End point (mean ± SD): p<0.0001; for Aberrant Behavior Checklist-Social Withdrawal (ABC-SW), End point (mean ± SD): baseline 8.8 ± 5.8, p=0.04 (Table 5: 7.33 ± 5.2, p=0.014); for Aberrant Behavior Checklist-Hyperactivity (ABC-H), End point (mean ± SD): baseline 16.8 ± 9.1, p=0.009; for ADHD Rating Scale 4th Edition (ADHD-RS), End point (mean ± SD): baseline 23.6 ± 10.6; for Vineland Adaptive Behavior Scale (VABS) Communication Domain, End point (mean ± SD): baseline 63.4 ± 10.1, p=0.03; for VABS Expressive Communication Subdomain, End point (mean ± SD): baseline 69.8 ± 23.0; for Social Responsiveness Scale total score (SRS), End point (mean ± SD): baseline 91.3 ± 27.4, p=0.005
From the text: The Institutional Review Board (IRB) at an academic medical center approved this study. Thirteen outpatient males and females aged 5 to 17 years with body weight≥15 kg were recruited for this study. Written informed consent was obtained from each participant's legal guardian (parent for all children in this report), and subjects provided assent when able. Diagnosis of FXS was confirmed by Southern Blot and PCR results consistent with a greater than 200 CGG repeat expansion in the fmr1 gene with at least partial gene methylation. Subjects had to be free of other significant medical conditions. The concomitant use of psychotropic drugs that are not thought to impact glutamate neurotransmission were allowed so long as the patients experienced stable dosing at least 4 weeks prior to baseline. Subjects were required to have a mental age of greater than 18 months as determined by the Stanford-Binet 5th Edition. Additional inclusion criteria included a CGI-S (Guy 1976) score of at least 4 (“Moderately Ill”). Subjects with a Diagnostic and Statistical Manual of Mental Disorders, 4th Edition, Text Revision (DSM-IV-TR) diagnosis of a psychotic disorder, bipolar disorder, or substance use disorder were excluded from the study. Additionally, subjects with a positive urine pregnancy test, creatinine clearance of <30, active seizure disorder, or other significant medical condition were excluded.
A 10-week, prospective, open-label study design was chosen to gather pilot data for potential future larger-scale, double-blind, placebo-controlled studies in this population.
All subjects underwent a screening and baseline visit followed by follow-up visits every 2 weeks during the 10-week open-label trial period. At the end of weeks 1, 3, and 5 the investigators called the parent to assess drug tolerability and to make dose adjustments as indicated. All subjects received 333 mg/day of acamprosate during the first week of the study. The investigators then increased the dosage to a maximum of 1,998 mg/day (weight>50 kg) or 1,332 mg/day (weight<50 kg) over the first six weeks of the study, if optimal clinical response (CGI-I equal to 1 “very much improved”) had not occurred and intolerable adverse effects had not emerged. The dose maintenance phase lasted 4 weeks at the optimal dosage.
The CGI-S assessment was administered at screen and at baseline as part of the eligibility criteria described above. In this study, the rater scored the CGI-S in regard to severity of symptoms commonly noted in FXS including, but not limited to, inattention/hyperactivity, social impairment, communication impairment, repetitive behavior, irritability, and anxiety. The CGI-S is rated on a scale from 1 to 7 (1=normal, not ill at all; 2=borderline ill; 3=mildly ill; 4=moderately ill; 5=markedly ill; 6=severely ill; 7=among the most extremely ill patients with FXS). The Autism Diagnostic Observation Schedule (ADOS) (Lord, Rutter et al. 1989) was administered at baseline to characterize potential concomitant ASD diagnosis.
The primary outcome measure was the CGI-I. The CGI-I is a scale designed to assess global change from baseline. […] Treatment response was defined by a CGI-I score of 1 “very much improved” or 2 “much improved.” In this study, the CGI-I was utilized as a general global primary outcome measure given the uncertainty as to what specific symptoms/behaviors associated with FXS may be expected to improve or worsen with use of acamprosate. The CGI-I was administered at all visits after baseline.
Secondary outcome measures included all subscales of the ABC (Irritability, Social Withdrawal, Stereotypy, Hyperactivity, and Inappropriate Speech). The ABC is an informant-rated (primary caregiver) measure with confirmed reliability and validity with regard to factor structure, distribution of scores, and sensitivity to change in persons with developmental disability (Aman, Singh et al. 1985). […]

[2] = tested on: adult males diagnosed with FXS; settings: 3 adult males, cited from earlier work
alcohol intake = settings: mouse, in vivo; cited from earlier work
NMDA glutamate receptor = settings: animal studies; cited from earlier work
[3] = tested on: fmr1 (fragile X gene) Knock Out mice; test: training/test exploration and P.I. in WT and fmr1 KO mice; type: in vivo; set-up: training left / training right / training Total / test novel / test fam / test total: unit not given here
[4] = FXS, n=12, 10 weeks, listed as acamprosate
[5] = FXS, mean change from baseline to endpoint divided by SD at baseline

CC(=O)NCCCS(=O)(=O)O [Acamprosate, 3-Acetamidopropane-1-sulfonic acid]
Treatment responders (CGI-I score of 1 very much improved or 2 much improved) ([1]; 12 youth with FXS, 10 weeks, mean final dose 1054 mg/day): 75% | Other subscales of the ABC and the CY-BOCS-PDD ([1]; FXS, 10 weeks): did not change significantly during treatment | SRS Social Awareness and Autistic Mannerisms subscales ([1]; FXS, 10 weeks): Improvement was not noted | decline of mean ABC-H score, baseline to endpoint ([1]; FXS, 10 weeks): 35% | decline of mean ABC-SA score, baseline to endpoint ([1]; FXS, 10 weeks): 51% | decline of mean ABC-SW score, baseline to endpoint ([1]; FXS, 10 weeks): 53% | decline of mean ADHD-RS score, baseline to endpoint ([1]; FXS, 10 weeks): 29% | decline of mean total SRS raw score, baseline to endpoint ([1]; FXS, 10 weeks): 16% | improvement of mean VABS Communication Domain standard score ([1]; FXS, 10 weeks): 5% | improvement of mean VABS Expressive Communication score ([1]; FXS, 10 weeks): 13% | other domains of the VABS ([1]; FXS, 10 weeks): No other changes with treatment were noted | Peabody Picture Vocabulary Test (PPVT), End point (mean ± SD) ([1]; FXS, 10 weeks, baseline 85.2 ± 32.0, p=0.53): did not significantly change with treatment | decline of SRS Social Motivation subscale ([1]; FXS, 10 weeks, p=0.003): 28% | decline of SRS Social Cognition subscale ([1]; FXS, 10 weeks, p=0.01): 19% | decline of SRS Social Communication subscale ([1]; FXS, 10 weeks, p=0.01): 14% | mean CGI-I at endpoint ([1]; FXS, Week 10, scale 1-7): 1.92 and 1.9 | Aberrant Behavior Checklist-Social Avoidance (ABC-SA), End point (mean ± SD) ([1]; FXS, n=12, 10 weeks, p=0.01): 1.6 ± 2.7 | Aberrant Behavior Checklist-Social Avoidance (ABC-SA), End point (mean ± SD) ([1]; FXS, n=12, 10 weeks, p=0.01, listed as acamprosate): 1.6 | Clinical Global Impressions-Severity (CGI-S), End point (mean ± SD) ([1]; FXS, n=12, 10 weeks): 3.33 ± 0.5 and 3.33 ± 0.49 | Clinical Global Impressions-Severity (CGI-S), End point (mean ± SD) [1, 4]: 3.33 | Aberrant Behavior Checklist-Inappropriate Speech (ABC-IS), End point (mean ± SD) ([1]; FXS, n=12, 10 weeks, baseline 5.2 ± 3.5, p=0.61): 4.8 ± 3.4 | Aberrant Behavior Checklist-Social Withdrawal (ABC-SW), End point (mean ± SD) ([1]; FXS, n=12, 10 weeks): 4.1 ± 6.5 | Aberrant Behavior Checklist-Social Withdrawal (ABC-SW), End point (mean ± SD) [1, 4]: 4.1 | Aberrant Behavior Checklist-Irritability (ABC-I), End point (mean ± SD) ([1]; FXS, n=12, 10 weeks, baseline 9.9 ± 7.8, p=0.11): 7.0 ± 8.9 | Children's Yale-Brown Obsessive Compulsive Scale Modified for PDD (CY-BOCS-PDD), End point (mean ± SD) ([1]; FXS, n=12, 10 weeks, baseline 11.1 ± 2.6, p=0.15): 9.8 ± 4.1 | Aberrant Behavior Checklist-Hyperactivity (ABC-H), End point (mean ± SD) ([1]; FXS, n=12, 10 weeks): 11.0 ± 8.6 | Aberrant Behavior Checklist-Hyperactivity (ABC-H), End point (mean ± SD) [1, 4]: 11.0 | ADHD Rating Scale 4th Edition (ADHD-RS), End point (mean ± SD) ([1]; FXS, n=12, 10 weeks): 16.7 ± 8 | ADHD Rating Scale 4th Edition (ADHD-RS), End point (mean ± SD) [1, 4]: 16.7 | Vineland Adaptive Behavior Scale (VABS) Communication Domain, End point (mean ± SD) ([1]; FXS, n=12, 10 weeks): 66.6 ± 11.2 | Vineland Adaptive Behavior Scale (VABS) Communication Domain, End point (mean ± SD) [1, 4]: 66.6 | VABS Expressive Communication Subdomain, End point (mean ± SD) ([1]; FXS, n=12, 10 weeks, p=0.003): 78.9 ± 21.2 | VABS Expressive Communication Subdomain, End point (mean ± SD) ([1]; FXS, n=12, 10 weeks, p=0.003, listed as acamprosate): 78.9 | Social Responsiveness Scale total score (SRS), End point (mean ± SD) ([1]; FXS, n=12, 10 weeks): 76.4 ± 26.8 and 76.42 ± 26.8 | Social Responsiveness Scale total score (SRS), End point (mean ± SD) [1, 4]: 76.4 | Effect Size, ABC-H [1, 5]: 0.64 | Effect Size, ABC-SA [1, 5]: 0.64 | Effect Size, ABC-SW [1, 5]: 0.81 | Effect Size, ADHD-RS [1, 5]: 0.65 | Effect Size, CGI-S [1, 5]: 2.0 | Effect Size, SRS total score [1, 5]: 0.54 | Effect Size, VABS Communication Domain [1, 5]: 0.32 | Effect Size, VABS Expressive Communication Subdomain [1, 5]: 0.4 | Effect Size, VABS Communication Domain ([1]; FXS, mean change from baseline to endpoint divided by SD at baseline, listed as acamprosate): 0.3 | youth judged responders to acamprosate (of those treated) ([1]; youth with FXS, pre-specified indicators of clinical response): 9 of 12 | clinical response measured by the CGI-I ([2]; mean dose 1,221 mg/day, mean duration 21.3 weeks): all 3 subjects showed significant positive clinical response | subjects with non-treatment limiting gastrointestinal distress (emesis and/or nausea) [2]: Two | alcohol intake (alcohol intake): reduced alcohol intake | action at the NMDA glutamate receptor (NMDA glutamate receptor): bind and act as an antagonist at the NMDA glutamate receptor | training P.I. average (mean) ([3]; KO Acam group, KO Sal 0.022521, WT Sal 0.193298): 0.06358 | test P.I. average (mean) ([3]; KO Acam group, KO Sal 0.134837, WT Sal 0.167142): 0.2684 | test P.I. ([3]; KO Acam, individual mice): 0.3192 and 0.2294 and 0.5255 and 0.2717 and 0.3025 and −0.1161 and 0.3463 | test fam ([3]; KO Acam, individual mice): 24.3 and 40.3 and 28.38 and 28.7 and 32.28 and 47.59 and 30.2 | test novel ([3]; KO Acam, individual mice): 47.09 and 64.3 and 91.23 and 50.11 and 60.28 and 37.69 and 62.2 | test total ([3]; KO Acam, individual mice): 71.39 and 104.6 and 119.61 and 78.81 and 92.56 and 85.28 and 92.4 | training P.I. ([3]; KO Acam, individual mice): 0.1811 and 0.1143 and 0.08976 and −0.105 and 0.1648 and −0.1088 and 0.1088 | training Total ([3]; KO Acam, individual mice): 89.27 and 135.74 and 82.44 and 97.27 and 78.95 and 159.13 (2×) | training left ([3]; KO Acam, individual mice): 52.72 and 75.63 and 44.92 and 43.53 and 45.98 and 70.91 and 88.22 | training right ([3]; KO Acam, individual mice): 36.55 and 60.11 and 37.52 and 53.74 and 32.97 and 88.22 and 70.91
